{
  "source": "patent US9610332B2",
  "about": "“Compositions and methods for modulating BRD4 bioactivity” (priority 2012, dated 2017)",
  "key": {"[1]": {"system": "U20S cells overexpressing Brd4 isoform B", "assay": "γH2AX foci / DDR signaling suppression in cells overexpressing Brd4 isoform B", "type": "cell-based, human", "settings": "for sensitivity of suppression of DDR signaling by Brd4 isoform B overexpression to transcription or translation inhibition: a-amanitin 1-16 μM, cycloheximide 35-560 μM", "method": "U20S cells were plated on #1 glass coverslips (VWR) and were cultured in DMEM+Pen/Strep+10% v/v FBS (complete media) at 37° C. in a 5% CO2 atmosphere, then exposed to 10 Gy Ionizing radiation from a 137CS source in a Gammacell irradiator (Atomic Energy of Canada, Ltd). fixed in methanol, and processed for immuofluorescence using the antibodies indicated above. Images were captured on a Zeiss Axiophot II microscope with a Hamamatsu CCD camera and processed with OpenLab/Volocity software. Quantitative image analysis was accomplished using CellProfiler (www.CellProfiler.org) or ImageJ software (http://rsb.info.nih.gov/nihimageJ).\n(§1) UCN01 was from Sigma (cat. #U6508) and was used at concentrations of 0.003-10 μM.\n3×10^6 U20S cells were plated and transiently transfected with pEGFP-C 1, isoform C, isoform B, isoform B, BD1 mutant, Brd4-NUT and truncated Brd4-NUT using Fugene 6 (Roche). These cells were exposed to 10 Gy Ionizing radiation and harvested 24 hrs later, fixed with 4% formaldehyde, extracted with 100% ethanol, processed for flow cytometry using the antibodies listed above. Data were analyzed using FlowJo (www.flowjo.com) software.\nU20S cell lines stably expressing this shRNA or control hairpins (ineffective hairpins directed against human sequences of BAD and PUMA) were created using puromycin selection at 2 ug/mL. STEALTH siRNA against BRD4 and control were purchased from Invitrogen, and used according to manufacturer's instructions."}, "CHEK2 mRNA": {"system": "CHEK2 mRNA", "assay": "CHEK2 mRNA expression by RT-PCR", "type": "cell-based, human", "settings": "short term treatment; FIG. 6B, 6C", "method": "as §1"}, "U20S cells [2]": {"system": "U20S cells", "assay": "H2AX phosphorylation / γH2AX foci after IR with Brd4 bromodomain inhibitor", "type": "cell-based, human", "method": "For small molecule testing, cells were plated at 500 cells/well in 384-well plates. The day after plating, small molecules at different concentrations in 100 nL DMSO were pin transferred to cells with a CyBio robot, and cells were propagated for 16 hours.\nAll plates were treated with 10 Gy of 667 keV X-rays from a 137Cs source in a Gammacell irradiator (Atomic Energy of Canada, Ltd). A 0 hour control plate was not irradiated. The plates were returned to the incubator and fixed with 4.4% w/v paraformaldehyde in phosphate-buffered saline (PBS) at 1, 6, and 24 hours post irradiation. Plates were stored in PBS at 4° C. prior to staining. Fixed plates were washed 3 times with PBS and blocked with 24 IJL of GSDB (0.15% goat serum, 8.33% goat serum, 120 mM sodium phosphate, 225 mM NaCl) for 30 minutes. […]\nU20S cells were plated on #1 glass coverslips (VWR) and were cultured in DMEM+Pen/Strep+10% v/v FBS (complete media) at 37° C. in a 5% CO2 atmosphere, then exposed to 10 Gy Ionizing radiation from a 137CS source in a Gammacell irradiator (Atomic Energy of Canada, Ltd). fixed in methanol, and processed for immuofluorescence using the antibodies indicated above. […] Quantitative image analysis was accomplished using CellProfiler (www.CellProfiler.org) or ImageJ software (http://rsb.info.nih.gov/nihimageJ)."}, "Brd4 bromodomain 1": {"target": "Brd4 bromodomain 1 (Homo sapiens, UniProt O60885)", "settings": "as reported previously (Nature 468:1067 (2010)); cited from earlier work"}, "U20S cells [3]": {"system": "U20S cells", "assay": "Image-based screen: G2/M arrest and mitotic entry (DNA content, pHH3) after irradiation", "type": "cell-based, human", "settings": "10 Gy IR, FIGS. 1B, 1D, 1F, 1G", "method": "For both shRNA and small molecule screens, human U20S osteosarcoma cells (ATCC HTB-96) were grown in DMEM+Pen/Strep+10% v/v FBS (complete media) at 37° C. in a 5% CO2 atmosphere. All screens were carried out at passage 10-15. Cells were tested for mycoplasma by PCR prior to seeding and infection. U20S cells were seeded with a MicroFill (Biotek) in 384-well black, clear bottom plates (Greiner) at a density of 300 (shRNA) cells/well in 50 IJL of media, and allowed to attach overnight at 37° C. in a 5% CO2 atmosphere.\nFor shRNA screens, the media was exchanged the following day to complete media with 8 μg/mL polybrene using a JANUS workstation (PerkinElmer). Virus infection was carried out on an EP3 workstation (PerkinElmer) with 1.5 μL of hightiter retrovirus. […] Plates were centrifuged in a swinging-bucket rotor at 2250 rpm for 30 minutes following infection and returned to the incubator overnight. […]\nPlates were allowed to equilibrate to room temperature for 30 minutes and imaged on a Cellomics ArrayScan VTI automated microscope with a 20× objective. […] Images were segmented and analyzed with CellProfiler cell image analysis software (Carpenter et al., Genome Biology, 2006, 7, R100). […]"}},
  "data": [
    {"molecule": "a-amanitin", "values": [
      {"measurement": "sensitivity of suppression of DDR signaling by Brd4 isoform B overexpression to transcription or translation inhibition", "setting": "[1]", "value": "insensitive"}
    ]},
    {"molecule": "Cc1sc2c(c1C)C(c1ccc(Cl)cc1)=NC(CC(=O)OC(C)(C)C)c1nnc(C)n1-2", "note": "(single isomer, unassigned; (+)) [(+)JQ1]", "values": [
      {"measurement": "CHEK2 mRNA", "setting": "CHEK2 mRNA", "value": "no change in CHEK2 mRNA"},
      {"measurement": "H2AX phosphorylation following IR", "setting": "U20S cells [2]; compound at 250 nM, 10 Gy IR", "value": "enhanced H2AX phosphorylation following IR"},
      {"measurement": "γH2AX foci formation after irradiation", "setting": "U20S cells [2]; inhibition with JQ1 or short term Brd4 knockdown", "value": "sufficient to increase γH2AX foci formation after irradiation"},
      {"measurement": "reversal of the ability of Brd4 isoform B to suppress γH2AX foci formation", "setting": "[1]; cells overexpressing Brd4 isoform B, compound at 250 nM", "value": "reversed"},
      {"measurement": "inhibition of Brd4 bromodomain 1 versus bromodomain 2", "setting": "Brd4 bromodomain 1", "value": "more potent inhibition of Brd4 bromodomain 1 than bromodomain 2"}
    ]},
    {"molecule": "C[C@@H]1C[C@@H]([C@H](O)CC2CC(=O)NC(=O)C2)C(=O)[C@@H](C)C1", "note": "[cycloheximide]", "values": [
      {"measurement": "sensitivity of suppression of DDR signaling by Brd4 isoform B overexpression to transcription or translation inhibition", "setting": "[1]", "value": "insensitive"}
    ]},
    {"molecule": "CN[C@@H]1C[C@H]2O[C@@](C)([C@@H]1OC)n1c3ccccc3c3c4c(c5c6ccccc6n2c5c31)C(=O)N[C@@H]4O", "note": "[UCN01]", "values": [
      {"measurement": "G2/M arrest following irradiation / mitotic entry", "setting": "U20S cells [3]", "value": "abrogated the normal G2/M arrest following irradiation, leading to premature mitotic entry"}
    ]}
  ]
}
